These are literature values, as cited in PMC7377239, “Cardiovascular Effects of Polychlorinated Biphenyls and Their Major Metabolites” (Environmental Health Perspectives, 2020).

In this data set the test system is porcine pulmonary artery–derived EC. More on the design: method as in Hennig et al. 2002, 2005; Toborek et al. 1995. The note with it: ref Hennig et al. 2002, 2005, Toborek et al. 1995; cited from earlier work.
With `Clc1ccc(-c2cc(Cl)c(Cl)c(Cl)c2Cl)cc1` [PCB 114], the EC toxicity entry is given as “potent inducers of EC toxicity”. For the compound `Clc1ccc(-c2ccc(Cl)c(Cl)c2)cc1Cl` [PCB 77], the EC toxicity entry was “potent inducers of EC toxicity”. `Clc1ccc(-c2cc(Cl)c(Cl)cc2Cl)cc1Cl` [PCB 118]: the EC toxicity result is given as “potent inducers of EC toxicity”.
